In experiment [1] the target is Cation-independent mannose-6-phosphate receptor (Bos taurus) (UniProt P08169). As to the kind of experiment: Displacement of pentamannosyl phosphate bovine serum albumin from M6P/IGF2R.
Experiment [2] has the same target. The experiment in a line: Displacement of pentamannosyl phosphate bovine serum albumin from M6P/IGF2R relative to M6P.

Experimental findings from ChEMBL document CHEMBL1142390, “A set of phosphatase-inert "molecular rulers" to probe for bivalent mannose 6-phosphate ligand-receptor interactions” (Bioorg Med Chem Lett, 2008) are described below.

SMILES strings stand for the structures.

Sequence of Cation-independent mannose-6-phosphate receptor (Bos taurus) (P08169 whole entry, looked up): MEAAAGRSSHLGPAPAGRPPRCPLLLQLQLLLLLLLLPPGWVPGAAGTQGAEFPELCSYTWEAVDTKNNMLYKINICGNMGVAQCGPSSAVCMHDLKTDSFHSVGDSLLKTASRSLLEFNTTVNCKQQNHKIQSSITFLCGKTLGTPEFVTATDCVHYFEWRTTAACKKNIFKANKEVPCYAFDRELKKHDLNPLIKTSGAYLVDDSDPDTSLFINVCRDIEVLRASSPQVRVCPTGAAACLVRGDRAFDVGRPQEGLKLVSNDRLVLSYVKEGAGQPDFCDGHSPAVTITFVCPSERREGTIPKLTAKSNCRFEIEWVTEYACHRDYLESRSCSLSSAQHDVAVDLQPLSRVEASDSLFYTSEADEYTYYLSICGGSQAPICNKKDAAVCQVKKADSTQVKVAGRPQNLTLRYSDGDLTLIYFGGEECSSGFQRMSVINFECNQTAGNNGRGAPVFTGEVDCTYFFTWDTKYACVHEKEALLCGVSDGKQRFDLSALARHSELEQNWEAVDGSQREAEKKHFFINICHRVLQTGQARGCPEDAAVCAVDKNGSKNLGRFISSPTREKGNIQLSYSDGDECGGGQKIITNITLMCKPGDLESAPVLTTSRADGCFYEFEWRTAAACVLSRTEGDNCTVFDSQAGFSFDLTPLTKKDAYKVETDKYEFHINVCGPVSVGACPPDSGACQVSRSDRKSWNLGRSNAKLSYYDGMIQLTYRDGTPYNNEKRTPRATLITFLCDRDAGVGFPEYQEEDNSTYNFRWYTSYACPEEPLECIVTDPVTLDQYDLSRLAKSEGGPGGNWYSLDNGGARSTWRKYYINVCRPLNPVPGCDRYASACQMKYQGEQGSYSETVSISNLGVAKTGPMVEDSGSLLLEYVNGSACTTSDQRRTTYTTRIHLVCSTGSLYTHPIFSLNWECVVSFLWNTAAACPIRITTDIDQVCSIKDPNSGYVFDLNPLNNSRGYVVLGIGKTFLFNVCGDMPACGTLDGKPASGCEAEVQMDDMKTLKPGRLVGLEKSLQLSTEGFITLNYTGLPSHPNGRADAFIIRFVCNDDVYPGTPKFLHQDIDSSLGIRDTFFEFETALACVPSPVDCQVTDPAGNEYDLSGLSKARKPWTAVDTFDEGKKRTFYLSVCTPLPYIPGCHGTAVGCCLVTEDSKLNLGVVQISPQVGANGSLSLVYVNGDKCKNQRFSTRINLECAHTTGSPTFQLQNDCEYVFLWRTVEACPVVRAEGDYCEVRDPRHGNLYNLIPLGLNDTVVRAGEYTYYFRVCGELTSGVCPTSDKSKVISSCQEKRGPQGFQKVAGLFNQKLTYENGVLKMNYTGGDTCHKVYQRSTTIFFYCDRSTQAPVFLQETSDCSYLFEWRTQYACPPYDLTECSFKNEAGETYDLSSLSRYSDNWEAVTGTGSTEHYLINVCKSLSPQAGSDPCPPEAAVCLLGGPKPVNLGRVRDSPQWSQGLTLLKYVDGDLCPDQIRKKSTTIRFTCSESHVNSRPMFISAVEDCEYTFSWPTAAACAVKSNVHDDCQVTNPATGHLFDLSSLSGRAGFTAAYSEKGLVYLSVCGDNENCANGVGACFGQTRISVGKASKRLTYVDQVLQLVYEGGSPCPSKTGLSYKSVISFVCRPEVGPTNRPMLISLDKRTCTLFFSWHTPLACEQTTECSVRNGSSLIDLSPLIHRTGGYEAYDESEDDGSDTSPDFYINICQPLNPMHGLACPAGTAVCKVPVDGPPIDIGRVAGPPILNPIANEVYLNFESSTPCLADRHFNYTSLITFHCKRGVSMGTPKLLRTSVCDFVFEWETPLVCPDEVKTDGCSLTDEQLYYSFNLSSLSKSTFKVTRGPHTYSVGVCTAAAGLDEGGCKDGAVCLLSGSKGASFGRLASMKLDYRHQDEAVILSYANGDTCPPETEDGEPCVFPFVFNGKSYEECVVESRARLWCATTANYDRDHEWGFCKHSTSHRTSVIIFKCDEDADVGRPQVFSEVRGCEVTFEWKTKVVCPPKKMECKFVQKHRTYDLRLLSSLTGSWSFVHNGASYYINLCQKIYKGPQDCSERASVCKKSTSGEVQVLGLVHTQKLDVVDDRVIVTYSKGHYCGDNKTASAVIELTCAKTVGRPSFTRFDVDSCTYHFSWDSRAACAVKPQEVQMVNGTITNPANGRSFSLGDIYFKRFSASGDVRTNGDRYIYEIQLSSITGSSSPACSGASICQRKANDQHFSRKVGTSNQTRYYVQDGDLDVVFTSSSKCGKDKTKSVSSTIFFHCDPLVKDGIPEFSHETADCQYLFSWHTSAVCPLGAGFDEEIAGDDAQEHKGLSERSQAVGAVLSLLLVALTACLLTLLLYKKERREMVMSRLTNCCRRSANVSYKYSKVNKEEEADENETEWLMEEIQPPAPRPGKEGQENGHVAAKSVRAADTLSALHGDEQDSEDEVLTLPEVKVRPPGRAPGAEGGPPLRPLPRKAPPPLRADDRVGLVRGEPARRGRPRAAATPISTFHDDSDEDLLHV

As for `O=P(O)(O)OC[C@H]1O[C@@H](O)[C@H](O)[C@@H](O)[C@@H]1O`, in experiment [1], the IC50 (usually the concentration needed to halve the response being measured) is more than 10 µM.

`CC(=O)N[C@H](C(=O)N[C@@H](CCCCN)C(=O)N[C@H](C(N)=O)[C@@H](C)O[C@H]1O[C@H](CO)[C@@H](O)[C@H](O)[C@@H]1O[C@H]1O[C@H](COP(=O)(O)O)[C@@H](O)[C@H](O)[C@@H]1O)[C@@H](C)O[C@H]1O[C@H](CO)[C@@H](O)[C@H](O)[C@@H]1O[C@H]1O[C@H](COP(=O)(O)O)[C@@H](O)[C@H](O)[C@@H]1O`: the relative binding affinity (RBA) in experiment [2] stood at 13. In addition, the IC50 in experiment [1] is 20 µM.

`CC(=O)NCCCC[C@H](NC(=O)[C@@H](NC(C)=O)[C@@H](C)O[C@H]1O[C@H](CO)[C@@H](O)[C@H](O)[C@@H]1O[C@H]1O[C@H](COP(=O)(O)O)[C@@H](O)[C@H](O)[C@@H]1O)C(=O)N[C@H](C(N)=O)[C@@H](C)O[C@H]1O[C@H](CO)[C@@H](O)[C@H](O)[C@@H]1O[C@H]1O[C@H](COP(=O)(O)O)[C@@H](O)[C@H](O)[C@@H]1O` showed a relative binding affinity (RBA) in experiment [2] of 144. In experiment [1], this compound showed an IC50 of 1.8 µM.

In experiment [2], `O=P(O)(O)OC[C@H]1O[C@H](OCCCCCCCCCCCCO[C@H]2O[C@H](COP(=O)(O)O)[C@@H](O)[C@H](O)[C@@H]2O)[C@@H](O)[C@@H](O)[C@@H]1O` had a relative binding affinity (RBA) of 3.02. The compound further displayed a 50% inhibitory concentration (IC50) in experiment [1] of 3.7 µM.

In experiment [1], `O=P(O)(O)OC[C@H]1OC(O)[C@@H](O)[C@@H](O)[C@@H]1O` (stereo not given in full) had a concentration for half-maximal inhibition (IC50) of 11.5 µM.

On to `CC(=O)N[C@H](C(=O)N[C@@H](CCCCNC(=O)c1ccccc1N)C(=O)N[C@H](C(N)=O)[C@@H](C)O[C@H]1O[C@H](CO)[C@@H](O)[C@H](O)[C@@H]1O[C@H]1O[C@H](COP(=O)(O)O)[C@@H](O)[C@H](O)[C@@H]1O)[C@@H](C)O[C@H]1O[C@H](CO)[C@@H](O)[C@H](O)[C@@H]1O[C@H]1O[C@H](COP(=O)(O)O)[C@@H](O)[C@H](O)[C@@H]1O`, for which the relative binding affinity (RBA) in experiment [2] was found to be 2890. This compound also displayed an IC50 in experiment [1] of 0.09 µM.
